In patent US20250034586A1, “METHOD FOR EDITING BANANA GENES” (Tropic Biosciences UK Limited, priority 2021, published 2025):

Tests used:
[1] = tested on: Banana embryogenic cell suspensions (ECS); assay: CSF kill curves in banana ECS (number of embryos after short CSF treatment); assay type: cell-based; settings: for Number of banana embryos developed (Avg): 3 months after treatment
Description: Banana embryogenic cell suspensions (ECS) were pelleted in a falcon tube and mixed with CS (cell suspension) medium to a final cell density of 1-3%. An equal volume of the mixture was split into 6 flasks and the relevant amount of CSF was added to the final concentrations of 0, 10, 20, 50, 100 and 500 μg/L (1st kill curve) or 0, 0.5, 5, 50 and 100 mg/L (2nd kill curve). The ECS-CSF mixtures were placed/inoculated in 6 well plates (5 mL per well) and incubated at 65 rpm in the dark for 3, 5, 10, 15 days at 25° C.
At each time point, the ECS were collected in a cell strainer and washed with CS (cell suspension) medium to remove all the CSF. The cells were collected from the strainer and inoculated into embryo developing media (EDM) plates and developed for 2-3 months (until fully developed embryos were observed). The cells/embryos were subcultured every month. Each treatment was performed in triplicate and treated independently.
The number of embryos was assessed 2-3 months after CSF treatment. The embryos were counted under a stereo microscope using a 50-square grid to help the counting. For plates with too many embryos, only 3 squares from the 50 were counted and then the number of embryos was normalised for all of the plate. For the other plates all embryos were counted. Mean values±standard deviation (Stdev) were obtained from 3 technical replicates.

[2] = tested on: banana embryos or leaf material; assay: Comparison of selection using ALS inhibitor, G418 or hygromycin (genotyping of embryos or leaf material); assay type: cell-based
Description: In every case, regenerated material was transformed with constructs containing T-DNA that would generate resistance in positive transformants.

Sugar cane callus = settings: after 5 weeks; 3.6, 20, 50, 200, 500 μg/L tested; cited from earlier work
Potato somatic cells = settings: cited from earlier work
Tomato plants = settings: in vivo; cited from earlier work
[3] = tested on: Marchantia polymorpha spores; settings: (180 μg/L) for 7dd; cited from earlier work

COc1nc(C)nc(NC(=O)NS(=O)(=O)c2ccccc2Cl)n1 [CSF, chlorsulfuron]
Embryo number, 1st CSF kill curve ([1]; 0, 10, 20, 50, 200, 500 μg/L CSF for 3, 5, 10 and 15 days): major differences in embryo number were not observed | Fold-change non-CSF/+CSF (number of embryos) ([1]; 0.5 mg/L CSF for 5dd): 2.9 | Number of banana embryos developed (Avg) ([1]; 0.5 mg/L CSF for 5dd, 3 technical replicates): 1109 | Fold-change non-CSF/+CSF (number of embryos) ([1]; 0.5 mg/L CSF for 10dd): 32.6 | Number of banana embryos developed (Avg) ([1]; 0.5 mg/L CSF for 10dd): 127 | Fold-change non-CSF/+CSF (number of embryos) ([1]; 0.5 mg/L CSF for 15dd): 22.3 | Number of banana embryos developed (Avg) ([1]; 0.5 mg/L CSF for 15dd): 217 | Fold-change non-CSF/+CSF (number of embryos) ([1]; 5 mg/L CSF for 5dd): 24.9 | Number of banana embryos developed (Avg) ([1]; 5 mg/L CSF for 5dd): 127 | Fold-change non-CSF/+CSF (number of embryos) ([1]; 5 mg/L CSF for 10dd): 229.9 | Number of banana embryos developed (Avg) ([1]; 5 mg/L CSF for 10dd): 18 | Fold-change non-CSF/+CSF (number of embryos) ([1]; 5 mg/L CSF for 15dd): 167.0 | Number of banana embryos developed (Avg) ([1]; 5 mg/L CSF for 15dd): 29 | Decrease in the number of embryos ([1]; 5 mg/L CSF for 10 days): higher than 200 × | Fold-change non-CSF/+CSF (number of embryos) ([1]; 50 mg/L CSF for 5dd): 54.5 | Number of banana embryos developed (Avg) ([1]; 50 mg/L CSF for 5dd): 58 | Fold-change non-CSF/+CSF (number of embryos) ([1]; 50 mg/L CSF for 10dd): 459.8 | Number of banana embryos developed (Avg) ([1]; 50 mg/L CSF for 10dd): 9 | Fold-change non-CSF/+CSF (number of embryos) ([1]; 50 mg/L CSF for 15dd): 1210.5 | Number of banana embryos developed (Avg) ([1]; 50 mg/L CSF for 15dd): 4 | Fold-change non-CSF/+CSF (number of embryos) ([1]; 100 mg/L CSF for 5dd): 55.5 | Number of banana embryos developed (Avg) ([1]; 100 mg/L CSF for 5dd): 57 | Fold-change non-CSF/+CSF (number of embryos) ([1]; 100 mg/L CSF for 10dd): 517.3 | Number of banana embryos developed (Avg) ([1]; 100 mg/L CSF for 10dd): 8 | Fold-change non-CSF/+CSF (number of embryos) ([1]; 100 mg/L CSF for 15dd): 345.9 | Number of banana embryos developed (Avg) ([1]; 100 mg/L CSF for 15dd): 14 | CSF concentrations at which colour changes in banana ECS were observed ([1]; 2nd kill curve, after treatment): higher than 5 mg/L | Minimal lethal dose (concentration reducing number of embryos 100×; measure of success met) ([1]; 10 days of treatment): 5 mg/L | Killing of banana cells ([1]; five days of treatment, 2nd kill curve): inefficient for killing banana cells | Editing frequency ([2]; CSF selected material): 90-94% | Efficiency of generating transgenic lines of banana ([2]; CSF selection, embryos and shoots): 75-84% | Editing frequency ([2]; Embryos, CSF selection): 57/63 = 90.5% | Non-transgenic edited ([2]; Embryos, CSF selection): 19/584 = 3.2% | Transgenic frequency ([2]; Embryos, CSF selection): 344/408 = 84.3% | Editing frequency ([2]; Shoots, CSF selection): 34/36 = 94.4% | Non-transgenic edited ([2]; Shoots, CSF selection): 3/46 = 6.5% | Transgenic frequency ([2]; Shoots, CSF selection): 53/70 = 75.7% | Best concentration for selection (Sugar cane callus): 3.6 µg/L | CSF concentration reported to be effective (Potato somatic cells): 20 µg/L | CSF concentration reported to be effective (Tomato plants): 3.6 µg/L | CSF concentration reported to be effective [3]: 0.5 µM
